Experiment [1] has as its target T1, H278N mutant mouse delta opioid receptor (Mus musculus, UniProt P32300, H278N).
T1 construct: expressed in transfected cells; host or cells: COS-7 (transient, pCMV6c)
The experiment is described as follows: Forskolin-stimulated cAMP accumulation, COS-7 cells, H278N mutant. The format is cell-based. On the technique in general: Cyclic AMP is a second messenger, typically raised through Gs and lowered through Gi signalling.
Protocol: (§1) Briefly, COS-7 cells were subcultured in 12-well culture plates. The cells were transfected 48 hrs. prior to the cAMP experiments. Culture medium was removed from the wells and replaced with 500 μl of fresh medium containing 0.5 mM isobutylmethylxanthine (IBMX). Cells were incubated for 20 min at 37° C. Medium was removed and replaced with fresh medium containing 0.5 mM IBMX, with or without 10 μM forskolin and various opioid agonists. The cells were incubated for 30 min at 37° C. Medium was removed and cells sonicated in the wells in 500 μl of 1NCl. The HCl was evaporated off in a Speed-Vac and the cAMP analyzed using a radioimmunoassay kit from NEN/Dupont (Wilmington, Del.).

The target in experiment [2] is T2, mouse delta opioid receptor aspartate 95 to asparagine mutant (Mus musculus, UniProt P32300, D95N).
T2 construct: expressed in transfected cells; host or cells: COS-7
T2 sequence (P32300 whole entry D95N): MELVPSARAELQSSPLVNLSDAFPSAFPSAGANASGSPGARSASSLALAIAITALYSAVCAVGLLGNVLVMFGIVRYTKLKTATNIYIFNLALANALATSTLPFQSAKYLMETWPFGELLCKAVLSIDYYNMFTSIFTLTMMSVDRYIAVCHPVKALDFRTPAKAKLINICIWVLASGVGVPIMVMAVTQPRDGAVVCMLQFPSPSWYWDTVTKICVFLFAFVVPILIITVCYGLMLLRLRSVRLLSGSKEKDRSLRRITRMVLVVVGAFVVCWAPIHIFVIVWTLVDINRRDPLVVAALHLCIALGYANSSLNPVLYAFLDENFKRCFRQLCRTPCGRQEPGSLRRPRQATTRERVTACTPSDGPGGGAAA
Briefly: Binding to delta receptor mutant with aspartate 95 converted to asparagine, COS-7 cells.

In experiment [3] the target is T1, H278N mutant mouse delta opioid receptor. Briefly: biochemical. The experiment is classed as binding.
Experiment [4] addresses T3, cloned mouse κ receptor (Mus musculus, UniProt P33534).
T3 construct: expressed in transfected cells
Briefly: biochemical. The format is binding.

Experiment [5] addresses T4, cloned mouse δ receptor (Mus musculus, UniProt P32300).
T4 construct: expressed in transfected cells
Briefly: biochemical. The experiment is classed as binding.

The target in experiment [6] is T5, D128N mutant mouse delta opioid receptor (Mus musculus, UniProt P32300, D128N).
T5 construct: expressed in transfected cells; host or cells: COS-7 (transient, pCMV6c)
T5 sequence (P32300 whole entry D128N): as the sequence (P32300 whole entry D95N) above, with N95D, D128N counted along it
The experiment is described as follows: biochemical. The experiment is classed as binding.

Experiment [7] deals with T6, cloned rat μ receptor (Rattus norvegicus, UniProt P33535).
T6 construct: expressed in transfected cells; host or cells: COS-7 (transient)
T6 sequence (P33535 whole entry): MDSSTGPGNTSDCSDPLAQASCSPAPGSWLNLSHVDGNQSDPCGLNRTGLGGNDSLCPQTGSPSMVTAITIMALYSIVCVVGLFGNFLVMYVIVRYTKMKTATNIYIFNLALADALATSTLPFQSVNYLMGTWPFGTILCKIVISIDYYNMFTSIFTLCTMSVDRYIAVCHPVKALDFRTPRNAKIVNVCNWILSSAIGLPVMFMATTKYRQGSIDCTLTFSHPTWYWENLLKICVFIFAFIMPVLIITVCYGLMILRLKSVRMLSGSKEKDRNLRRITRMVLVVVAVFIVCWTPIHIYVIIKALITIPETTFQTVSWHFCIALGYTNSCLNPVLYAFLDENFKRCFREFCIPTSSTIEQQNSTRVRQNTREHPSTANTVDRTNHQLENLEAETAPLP
The experiment is described as follows: biochemical. The experiment is classed as binding.

Experiment [8] concerns the target T5, D128N mutant mouse delta opioid receptor. The experiment is described as follows: Forskolin-stimulated cAMP accumulation, COS-7 cells, D128N mutant. The format is cell-based.
Protocol: as §1
Experiment [9] deals with T7, wild-type mouse delta opioid receptor (Mus musculus, UniProt P32300).
T7 construct: expressed in transfected cells; host or cells: COS-7 (transient, pCMV6c)
T7 sequence (P32300 whole entry): as the sequence (P32300 whole entry D95N) above, with N95D counted along it
The experiment is described as follows: biochemical. The experiment is classed as binding.

The target in experiment [10] is T7, wild-type mouse delta opioid receptor. The experiment is described as follows: Forskolin-stimulated cAMP accumulation, COS-7 cells, wild-type delta receptor. The format is cell-based.
Protocol: as §1
Experiment [11] deals with T8, MOP2 (Mus musculus, UniProt P35377).
T8 construct: expressed in transfected cells; host or cells: COS-7 (transient)
T8 sequence (P35377 whole entry): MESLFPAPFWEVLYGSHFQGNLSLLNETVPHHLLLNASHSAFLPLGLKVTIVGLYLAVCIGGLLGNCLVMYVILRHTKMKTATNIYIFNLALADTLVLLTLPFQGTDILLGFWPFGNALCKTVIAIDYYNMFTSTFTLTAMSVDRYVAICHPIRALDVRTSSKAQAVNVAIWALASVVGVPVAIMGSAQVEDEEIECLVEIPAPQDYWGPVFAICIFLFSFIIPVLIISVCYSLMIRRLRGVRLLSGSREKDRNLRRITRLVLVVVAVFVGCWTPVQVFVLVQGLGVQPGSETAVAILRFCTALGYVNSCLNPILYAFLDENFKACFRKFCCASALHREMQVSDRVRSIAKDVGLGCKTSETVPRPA
The format is cell-based.

The target of experiment [12] is κ1-78/δ70-372 chimeric receptor (Mus musculus, UniProt P32300+P33534, A193I/A281G/D128E/D204G/D206V/DEL208-209/DEL216-217/DEL300-312/E203D/E218S/E297A/F225V/F314L/G197A/G198V/I133A/I135L/I177L/I191V/I194M/I237V/I243T/I250L/I284V/I285V/I294L/I85V/INS221Y/INS293VIVWTLVDINRRDP/K200Q/K254R/K274R/L173A/L184V/L196M/L224T/L275M/L295V/M112L/M226T/M90L/N122E/N268S/R263K/S123T/S188G/S192P/S211M/T110S/T247G/T288A/T321A/V108A/V118K/V129L/V201P/V205A/V232L/V239I/V282A/V83G/Y219P/Y313H). Briefly: biochemical.
κ1-78/δ70-372 chimeric receptor, sequence (P33534+P32300 fused with the stated changes): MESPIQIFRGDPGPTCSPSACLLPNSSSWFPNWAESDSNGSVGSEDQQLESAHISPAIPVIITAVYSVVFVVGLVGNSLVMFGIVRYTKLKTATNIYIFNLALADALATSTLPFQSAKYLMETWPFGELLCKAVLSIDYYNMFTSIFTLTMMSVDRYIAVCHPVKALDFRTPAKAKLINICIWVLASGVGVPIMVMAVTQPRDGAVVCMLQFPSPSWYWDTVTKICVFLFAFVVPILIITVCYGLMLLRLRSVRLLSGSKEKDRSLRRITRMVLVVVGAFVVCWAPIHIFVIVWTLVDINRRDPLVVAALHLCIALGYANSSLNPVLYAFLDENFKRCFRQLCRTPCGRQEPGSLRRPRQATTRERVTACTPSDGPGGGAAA

Two molecules from patent publication US7235366B1 (priority 1993, dated 2007) can be followed below.

Structures are written as SMILES.

T1 sequence (P32300 whole entry H278N): as the sequence (P32300 whole entry D95N) above, with N95D, H278N counted along it
T3 sequence (P33534 whole entry): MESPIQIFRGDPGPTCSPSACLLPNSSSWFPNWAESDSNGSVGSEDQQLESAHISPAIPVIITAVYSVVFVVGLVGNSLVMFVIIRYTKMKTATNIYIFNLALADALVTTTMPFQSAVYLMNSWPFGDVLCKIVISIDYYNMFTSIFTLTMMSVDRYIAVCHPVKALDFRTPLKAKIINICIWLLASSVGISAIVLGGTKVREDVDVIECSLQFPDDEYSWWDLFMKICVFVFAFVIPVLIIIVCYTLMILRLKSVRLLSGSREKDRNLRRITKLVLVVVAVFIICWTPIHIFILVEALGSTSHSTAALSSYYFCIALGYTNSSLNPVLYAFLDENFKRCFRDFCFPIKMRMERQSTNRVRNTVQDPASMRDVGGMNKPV
T4 sequence (P32300 whole entry): as the sequence (P32300 whole entry D95N) above, with N95D counted along it

As a reminder, the EC50 is the midpoint of the concentration-response curve. Higher therefore signals a less potent agent. As usually defined, the Ki is the dissociation constant of the complex between target and ligand, obtained from inhibition or displacement. A high value points to weaker binding. Consider `CCC12CCN(CC3(O)CC3)C(Cc3ccc(O)cc31)C2(C)C` (racemic) [Bremazocine], for which the results for the 50% effective concentration (EC50) in experiment [1], in [8] and in experiment [10] were 1.5 nM, 80 nM and 7.4 nM, respectively. For the same molecule, the “Affinity of aspartate 95 mutant and wild-type delta receptors compared” value in [2] is given as “similar”. The Ki in experiment [3] was determined as 1.7 nM; in experiment [4], 0.089 nM; in experiment [5], 2.3 nM; in experiment [6], 2690 nM; in [7] it was 0.75 nM; in [9] it was 58 nM. The “Effect on forskolin-stimulated cAMP formation, MOP2” value in experiment [11] was “no effect”.

A word on the IC50: it is the concentration that inhibits the measured activity by half. Take `Oc1ccc2c3c1O[C@H]1c4[nH]c5ccccc5c4C[C@@]4(O)[C@@H](C2)N(CC2CC2)CC[C@]314` [naltrindole]: the “Affinity of aspartate 95 mutant and wild-type delta receptors compared” value in [2] is given as “similar”. The Ki in experiment [3] was determined as 0.5 nM; in experiment [4], 66 nM; in experiment [6], 5.6 nM; in [9], 1.4 nM. Further, inhibition in experiment [12] was half-maximal at 0.25 nM (IC50).
